Data set [1] is described as follows: Photographic single layer element: Dmax, Dmin, gamma and λmax after color development. As to the method: Single layer photographic elements were prepared by coating a cellulose acetate-butyrate film support with a photosensitive layer containing a silver bromide emulsion at 70.2 and 140.4 mg/ft^2 for 2 and 4 equivalent couplers, respectively, gelatin at 350 mg/ft^2 and an image coupler (0.20 mmol/ft^2) dispersed in half its weight of dibutyl phthalate. The photosensitive layer was overcoated with a layer containing gelatin at 250 mg/ft^2 and bis vinylsulfonyl methyl ether hardener at 2.0 weight percent based on total gel.
Samples of each element were exposed imagewise through a stepped density test object and processed at 100° F. employing the following color developing solution, then stopped with a low pH bath, bleached, fixed, washed and dried to produce stepped colored images.
Color Developer Solution (2')
4-Amino-3-methyl-N-ethyl 3.55 g
Water to make 1 liter, pH 10.0
Densitometry in the appropriate color maximum density (Dmin and Dmax) and gamma defined as the maximum slope between any two adjacent density points.

Data set [2] is described as follows: pKa Measurements. Particulars: Table 1. Type of data set: physicochemical. The source says: The structural preference of the coupler for the axial conformation has important implications for […]. Due largely to the ability of the carbonyl oxygen to enolize and form H-bonds with the oxygen atoms of the dioxane ring, the pKa of the coupler is generally 1-2 units lower than pivaloyl acetanilide-based couplers. A lower pKa value means that the coupler ionizes more readily at pH 10, and results in higher coupling activity with oxidized color developer, as shown in Table 1.

Where [3] appears, read: Table 4, color developer pH 10.0.

In US5118599A, “Yellow couplers for photographic elements and processes” (Eastman Kodak Company, priority 1991, dated 1992) one finds λmax and pKa data, which are given here for 16 molecules.

Consider `CCC(C)(C)c1ccc(OCCCC(=O)Nc2ccc(OC)c(NC(=O)CC(=O)C3(C)COCOC3)c2)c(C(C)(C)CC)c1` [Coupler D-3], for which the λmax in data set [1] (setting [3]) came out at 446 nm.
Consider `CCC(C)(C)c1ccc(OCCCC(=O)Nc2cccc(NC(=O)C(Oc3ccc(S(=O)(=O)c4ccc(O)cc4)cc3)C(=O)C3(C)COCOC3)c2)c(C(C)(C)CC)c1` [Coupler D-12], for which, in data set [1] (setting [3]), the λmax turned out to be 454 nm.
The same measure, in the same setting: under `CCC(C)(C)c1ccc(OCCCC(=O)Nc2ccc(OC)c(NC(=O)C(Oc3ccc(S(=O)(=O)c4ccc(O)cc4)cc3)C(=O)C3(C)COC(C)(C)OC3)c2)c(C(C)(C)CC)c1` [Coupler D-7] stands 445 nm; under `CCCCCCCCCCCCCCCCS(=O)(=O)Nc1ccc(Cl)c(NC(=O)C(Oc2ccc(S(=O)(=O)c3ccc(OCc4ccccc4)cc3)cc2)C(=O)C(C)(C)C)c1` (stereo not drawn) [P-I, reference compound], 452 nm.
In the case of `CCC(C)(C)c1ccc(OCCCC(=O)Nc2ccc(Cl)c(NC(=O)CC(=O)C3(C)COCOC3)c2)c(C(C)(C)CC)c1` [Coupler D-5], the λmax came out at 452 in data set [1] (Table 3, D99, pH 10.0, KS-2) and 452 nm in data set [1] (setting [3]).
Regarding `CCC(C)(C)c1ccc(OCCCC(=O)Nc2ccc(OC)c(NC(=O)C(Oc3ccc(S(=O)(=O)c4ccc(O)cc4)cc3)C(=O)C3(C)COCOC3)c2)c(C(C)(C)CC)c1` [Coupler D-14], in data set [1] (setting [3]), the λmax is listed as 448 nm.
The same measure, in the same setting: the result for `CCOC1C(=O)N(C(C(=O)Nc2cc(NC(=O)CCCOc3ccc(C(C)(C)CC)cc3C(C)(C)CC)ccc2OC)C(=O)C2(C)COC(C)(C)OC2)C(=O)N1Cc1ccccc1` [Coupler D-8] reads 445 nm.
What is called pKa is the negative logarithm of the acid dissociation constant. Lower therefore signals a stronger acid or weaker base. Consider `CCC(C)(C)c1ccc(OCCCC(=O)Nc2ccc(Cl)c(NC(=O)C(Oc3ccc(S(=O)(=O)c4ccc(OCc5ccccc5)cc4)cc3)C(=O)C(C)(C)C)c2)c(C(C)(C)CC)c1` (stereo not drawn) [P-III, reference compound], for which the pKa in data set [2] is given as 8.76. In data set [1] (setting [3]), the λmax amounted to 450 nm.
Consider `CCC(C)(C)c1ccc(OCCCC(=O)Nc2ccc(Cl)c(NC(=O)C(Oc3ccc(S(=O)(=O)c4ccc(OCc5ccccc5)cc4)cc3)C(=O)C3(C)COCOC3)c2)c(C(C)(C)CC)c1` [Coupler D-11], for which the pKa in data set [2] worked out at 7.24.
Turning to `CCC(C)(C)c1ccc(OCCCC(=O)Nc2ccc(Cl)c(NC(=O)CC(=O)C3(C)COC(C)(C)OC3)c2)c(C(C)(C)CC)c1` [Coupler D-0], the pKa in data set [2] is listed as 8.51.
The molecule `CCC(C)(C)c1ccc(OCCCC(=O)Nc2ccc(Cl)c(NC(=O)CC(=O)C(C)(C)C)c2)c(C(C)(C)CC)c1` [P-VI, reference compound] registered a pKa in data set [2] of 10.01. The λmax turned out to be 447 in data set [1] (Table 3, D99, pH 10.0, KS-2) and 447 nm in data set [1] (setting [3]).
With `CCCCCCCCCCCCCCCCS(=O)(=O)Nc1ccc(Cl)c(NC(=O)CC(=O)C(C)(C)C)c1` [P-V, reference compound], the λmax in data set [1] (Table 3, D99, pH 10.0, KS-2) was found to be 449; in data set [1] (setting [3]) it was 449 nm.
For `CCC(C)(C)c1ccc(OCCCC(=O)Nc2ccc(Cl)c(NC(=O)C(Oc3ccc(S(=O)(=O)c4ccc(O)cc4)cc3)C(=O)C3(C)COCOC3)c2)c(C(C)(C)CC)c1` [Coupler D-10], the pKa in data set [2] is recorded as 7.55. For the same molecule, the λmax in data set [1] (setting [3]) was found to be 453 nm.
For the molecule `CCCCCCCCCCCCCCCCS(=O)(=O)Nc1ccc(OC)c(NC(=O)CC(=O)C2(C)COC(C)(C)OC2)c1` [Coupler D-2], the λmax in data set [1] (Table 3, D99, pH 10.0, KS-2) came out at 446.
Regarding `CCCCCCCCCCCCCCCCS(=O)(=O)Nc1ccc(Cl)c(NC(=O)CC(=O)C2(C)COCOC2)c1` [Coupler D-4], the pKa in data set [2] is listed as 8.42. Moreover, the λmax in data set [1] (Table 3, D99, pH 10.0, KS-2) is 454; in data set [1] (setting [3]), 454 nm.
With `CCC(C)(C)c1ccc(OCCCC(=O)Nc2ccc(C)c(NC(=O)C(Oc3ccc(S(=O)(=O)c4ccc(O)cc4)cc3)C(=O)C3(C)COCOC3)c2)c(C(C)(C)CC)c1` [Coupler D-13], in data set [1] (setting [3]), the λmax was determined as 452 nm.
